Data taken from US8697683B2, “Azetidinyl diamides as monoacylglycerol lipase inhibitors” (Janssen Pharmaceutica, NV, priority 2009, dated 2014).

Each molecule was assayed against T1, MGL (Rattus norvegicus, UniProt Q8R431) (assay: 2-AG Accumulation Assay (rat brain homogenate)). Settings: compound 1 μM, percent of vehicle 2-AG accumulation.
T1 construct: one g rat brain was homogenized
T1 sequence (Q8R431 1-303): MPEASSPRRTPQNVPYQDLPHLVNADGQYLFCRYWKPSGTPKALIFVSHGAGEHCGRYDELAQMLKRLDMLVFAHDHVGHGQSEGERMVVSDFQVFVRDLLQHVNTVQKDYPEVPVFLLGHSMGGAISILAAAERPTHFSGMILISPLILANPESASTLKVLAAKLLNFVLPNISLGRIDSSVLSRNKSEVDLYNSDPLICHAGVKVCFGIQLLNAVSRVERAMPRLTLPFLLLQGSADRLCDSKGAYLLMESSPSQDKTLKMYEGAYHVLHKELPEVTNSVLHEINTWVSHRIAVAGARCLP
Format: biochemical

Structure (SMILES)	Rat Brain 2AG % VehCntrl (%) @1 μM
O=C(c1ccc(CSc2cccc(Cl)c2)cc1)N1CC(N2CCN(C(=O)c3nccs3)CC2)C1 [Cpd 454]	1066%
O=C(c1ccc(CNc2cccc(Cl)c2)cc1)N1CC(N2CCN(C(=O)c3nccs3)CC2)C1 [Cpd 455]	1013%
COc1c(C(=O)N2CC(N3CCN(C(=O)c4nccs4)CC3)C2)sc2cc(C(F)(F)F)ccc12 [Cpd 649, 1-(1-{[3-Methoxy-6-(trifluoromethyl)-1-benzothiophen-2-yl]carbonyl}azetidin-3-yl)-4-(1,3-thiazol-2-ylcarbonyl)piperazine]	1017%
Cc1c(C(=O)N2CC(N3CCN(C(=O)c4nccs4)CC3)C2)sc2ccc(C(F)(F)F)cc12 [Cpd 897]	1234%
Cc1c(C(=O)N2CC(N3CCN(C(=O)c4nccs4)CC3)C2)sc2cc(C(F)(F)F)ccc12 [Cpd 899, 1-(1-{[3-Methyl-6-(trifluoromethyl)-1-benzothiophen-2-yl]carbonyl}azetidin-3-yl)-4-(1,3-thiazol-2-ylcarbonyl)piperazine]	1092%
O=C(c1ccc(OCc2cccc(Cl)c2)cc1)N1CC(N2CCN(C(=O)c3nccs3)CC2)C1 [Cpd 957]	1442%
O=C(c1ccc(OCc2ccc(Cl)s2)cc1)N1CC(N2CCN(C(=O)c3nccs3)CC2)C1 [Cpd 962]	1213%
O=C(c1ccc(OCc2ccc3ccccc3n2)cc1)N1CC(N2CCN(C(=O)c3nccs3)CC2)C1 [Cpd 967]	1373%
O=C(c1ccc(Cc2ccc(C(F)(F)F)cc2)cc1)N1CC(N2CCN(C(=O)c3nccs3)CC2)C1 [Cpd 985]	1116%
O=C(c1ccc2c(c1)CCN2Cc1ccccc1)N1CC(N2CCN(C(=O)c3nccs3)CC2)C1 [Cpd 994, 1-Benzyl-5-({3-[4-(1,3-thiazol-2-ylcarbonyl)piperazin-1-yl]azetidin-1-yl}carbonyl)-2,3-dihydro-1H-indole]	1014%
O=C(c1ccc(Cc2cccc(C(F)(F)F)c2)cc1)N1CC(N2CCN(C(=O)c3nccs3)CC2)C1 [Cpd 995]	1080%
O=C(c1nn(-c2ccc(Cl)cc2Cl)c2c1CCC/C2=C\c1ccc(Cl)cc1)N1CC(N2CCN(C(=O)C(F)(F)F)CC2)C1 [Cpd 1020]	135%
Cn1cc(Cc2ccc(F)cc2)c2ccc(C(=O)N3CC(N4CCN(C(=O)c5nccs5)CC4)C3)cc21 [Cpd 1026]	1014%
Cc1cn(-c2ccccc2)c2ccc(C(=O)N3CC(N4CCN(C(=O)c5nccs5)CC4)C3)cc12 [Cpd 1054]	1008%
Cn1cc(-c2cccc(C(F)(F)F)c2)c2ccc(C(=O)N3CC(N4CCN(C(=O)c5cscn5)CC4)C3)cc21 [Cpd 1084]	1165%
O=C(c1ccc2nc(-c3ccccc3)sc2c1)N1CC(N2CCN(C(=O)c3nccs3)CC2)C1 [Cpd 1125, 2-Phenyl-6-({3-[4-(1,3-thiazol-2-ylcarbonyl)piperazin-1-yl]azetidin-1-yl}carbonyl)-1,3-benzothiazole]	1228%
Cn1cc(-c2ccccc2)c2ccc(C(=O)N3CC(N4CCN(C(=O)c5nccs5)CC4)C3)cc21 [Cpd 1132, 1-Methyl-3-phenyl-6-({3-[4-(1,3-thiazol-2-ylcarbonyl)piperazin-1-yl]azetidin-1-yl}carbonyl)-1H-indole]	1259%
Cn1cc(-c2cccc(F)c2)c2ccc(C(=O)N3CC(N4CCN(C(=O)c5nccs5)CC4)C3)cc21 [Cpd 1142]	1314%
O=C(c1ccc2nc(-c3cccc(C(F)(F)F)c3)oc2c1)N1CC(N2CCN(C(=O)c3nccs3)CC2)C1 [Cpd 1158, 6-({3-[4-(1,3-Thiazol-2-ylcarbonyl)piperazin-1-yl]azetidin-1-yl}carbonyl)-2-[3-(trifluoromethyl)phenyl]-1,3-benzoxazole]	1623%
Cn1cc(-c2ccc(F)cc2)c2ccc(C(=O)N3CC(N4CCN(C(=O)c5nccs5)CC4)C3)cc21 [Cpd 1318, 3-(4-Fluorophenyl)-1-methyl-6-({3-[4-(1,3-thiazol-2-ylcarbonyl)piperazin-1-yl]azetidin-1-yl}carbonyl)-1H-indole]	1282%
O=C(c1ccc2c(-c3cccc(C(F)(F)F)c3)c[nH]c2c1)N1CC(N2CCN(C(=O)c3nccs3)CC2)C1 [Cpd 1341, 6-({3-[4-(1,3-Thiazol-2-ylcarbonyl)piperazin-1-yl]azetidin-1-yl}carbonyl)-3-[3-(trifluoromethyl)phenyl]-1H-indole]	1149%
O=C(c1ccc2c(ccn2-c2cccc(C(F)(F)F)c2)c1)N1CC(N2CCN(C(=O)c3nccs3)CC2)C1 [Cpd 1356, 5-({3-[4-(1,3-Thiazol-2-ylcarbonyl)piperazin-1-yl]azetidin-1-yl}carbonyl)-1-[3-(trifluoromethyl)phenyl]-1H-indole]	1420%
O=C(c1ccc2c(ccn2-c2ccc(C(F)(F)F)cc2)c1)N1CC(N2CCN(C(=O)c3nccs3)CC2)C1 [Cpd 1357, 5-({3-[4-(1,3-Thiazol-2-ylcarbonyl)piperazin-1-yl]azetidin-1-yl}carbonyl)-1-[4-(trifluoromethyl)phenyl]-1H-indole]	2570%
O=C(c1ccc2c(ccn2-c2ccc(F)cc2)c1)N1CC(N2CCN(C(=O)c3cscn3)CC2)C1 [Cpd 1358, 1-(4-Fluorophenyl)-5-({3-[4-(1,3-thiazol-4-ylcarbonyl)piperazin-1-yl]azetidin-1-yl}carbonyl)-1H-indole]	1183%
O=C(c1ccc2c(ccn2-c2ccc(C(F)(F)F)cc2)c1)N1CC(N2CCN(C(=O)c3cscn3)CC2)C1 [Cpd 1359, 5-({3-[4-(1,3-Thiazol-4-ylcarbonyl)piperazin-1-yl]azetidin-1-yl}carbonyl)-1-[4-(trifluoromethyl)phenyl]-1H-indole]	1016%
Cc1nc(-c2cccc(C(F)(F)F)c2)sc1C(=O)N1CC(N2CCN(C(=O)c3nccs3)CC2)C1 [Cpd 1407, 1-[1-({4-Methyl-2-[3-(trifluoromethyl)phenyl]-1,3-thiazol-5-yl}carbonyl)azetidin-3-yl]-4-(1,3-thiazol-2-ylcarbonyl)piperazine]	1287%

The next lines start with the values.

Rat Brain 2AG % VehCntrl (%) @1 μM	Structure (SMILES)
1035%	O=C(c1ccc2nc(N3CCC(F)(F)CC3)sc2c1)N1CC(N2CCN(C(=O)c3nccs3)CC2)C1 [Cpd 671]
1027%	O=C(c1ccc2c(c1)CCN(Cc1cccc(C(F)(F)F)c1)C2)N1CC(N2CCN(C(=O)c3nccs3)CC2)C1 [Cpd 879]
1207%	O=C(c1nccs1)N1CCN(C2CN(C(=O)c3sc4cc(C(F)(F)F)ccc4c3F)C2)CC1 [Cpd 895, 1-(1-{[3-Fluoro-6-(trifluoromethyl)-1-benzothiophen-2-yl]carbonyl}azetidin-3-yl)-4-(1,3-thiazol-2-ylcarbonyl)piperazine]
1207%	O=C(c1ccc2c(c1)CCN(S(=O)(=O)c1ccc(C(F)(F)F)cc1)C2)N1CC(N2CCN(C(=O)c3nccs3)CC2)C1 [Cpd 928]
1125%	Cc1c(Cc2ccc(C(F)(F)F)cc2)cccc1C(=O)N1CC(N2CCN(C(=O)c3nccs3)CC2)C1 [Cpd 1008]
1133%	Cn1cc(-c2cccc(C(F)(F)F)c2)c2ccc(C(=O)N3CC(N4CCN(C(=O)c5nccs5)CC4)C3)cc21 [Cpd 1100]
1021%	O=C(c1ccc2c(ccn2-c2ncccn2)c1)N1CC(N2CCN(C(=O)c3nccs3)CC2)C1 [Cpd 1174, 1-Pyrimidin-2-yl-5-({3-[4-(1,3-thiazol-2-ylcarbonyl)piperazin-1-yl]azetidin-1-yl}carbonyl)-1H-indole]
1276%	O=C(c1ccc2c(-c3cccc(F)c3)c[nH]c2c1)N1CC(N2CCN(C(=O)c3nccs3)CC2)C1 [Cpd 1319]
1086%	O=C(c1ccc(-c2nc(-c3ccccc3Cl)cs2)cc1)N1CC(N2CCN(C(=O)c3nccs3)CC2)C1 [Cpd 1328]
1168%	O=C(c1ccc(-c2nc(-c3cccc(C(F)(F)F)c3)cs2)cc1)N1CC(N2CCN(C(=O)c3nccs3)CC2)C1 [Cpd 1332]
1428%	O=C(c1nccs1)N1CCN(C2CN(C(=O)c3ccc4c(ccn4-c4ccc(F)cc4)c3F)C2)CC1 [Cpd 1348, 4-Fluoro-1-(4-fluorophenyl)-5-({3-[4-(1,3-thiazol-2-ylcarbonyl)piperazin-1-yl]azetidin-1-yl}carbonyl)-1H-indole]

Same assay, conditions: compound 10 μM, percent of vehicle 2-AG accumulation

Structure (SMILES)	Rat Brain 2AG % VehCntrl (%) @10 μM
O=C(c1ccc(SCc2cccc(Cl)c2Cl)cc1)N1CC(N2CCN(C(=O)c3nccs3)CC2)C1 [Cpd 413, 1-[1-({4-[(2,3-Dichlorobenzyl)sulfanyl]phenyl}carbonyl)azetidin-3-yl]-4-(1,3-thiazol-2-ylcarbonyl)piperazine]	1693%
O=C(c1ccc(SCc2ccc(Cl)cc2)cc1)N1CC(N2CCN(C(=O)c3nccs3)CC2)C1 [Cpd 415]	1629%

Now from value to molecule:

Rat Brain 2AG % VehCntrl (%) @10 μM	Structure (SMILES)
1608%	O=C(c1ccc(SCc2ccc(Cl)c(Cl)c2)cc1)N1CC(N2CCN(C(=O)c3nccs3)CC2)C1 [Cpd 414, 1-[1-({4-[(3,4-Dichlorobenzyl)sulfanyl]phenyl}carbonyl)azetidin-3-yl]-4-(1,3-thiazol-2-ylcarbonyl)piperazine]
1121%	O=C(c1ccccc1)N1CCN(C2CN(C(=O)c3ccc(NCc4ccc(F)c(C(F)(F)F)c4)cc3)C2)CC1 [Cpd 494, N-[4-Fluoro-3-(trifluoromethyl)benzyl]-4-({3-[4-(phenylcarbonyl)piperazin-1-yl]azetidin-1-yl}carbonyl)aniline]
1285%	O=C(c1ccc(Oc2cccc(Cl)c2)c(F)c1)N1CC(N2CCN(C(=O)c3nccs3)CC2)C1 [Cpd 875]
